The results in this text go back to patent publication US12065436B2, “Cardiac sarcomere inhibitors” (Cytokinetics, Inc., priority 2018, dated 2024).

The target of this experiment is bovine cardiac myofibrils (full-length cardiac myosin ATPase in the native sarcomere) (Bos taurus (Bovine), UniProt Q9BE39). The experiment can be described thus: Skinned bovine cardiac myofibril ATPase assay (PK/LDH-coupled). The format is biochemical. Conditions: Ca2+ activating to 75% of maximal rate; for CDMF75 IC15: concentration giving 15% inhibition; for pIC50: read-out: CDMF75 IC50. How it is done: To evaluate the effect of compounds on the ATPase activity of full-length cardiac myosin in the context of the native sarcomere, skinned myofibril assays were performed. Bovine cardiac myofibrils were obtained by homogenizing bovine cardiac left ventricular tissue in the presence of a detergent such as triton X-100. Such treatment removes membranes and a majority of the soluble cytoplasmic proteins but leaves intact the cardiac sarcomeric acto-myosin apparatus. Myofibril preparations retain the ability to hydrolyze ATP in an Ca^2+ regulated manner. ATPase activities of such myofibril preparations in the presence and absence of compounds were assayed at Ca^2+ concentrations activating to a defined fraction of the maximal rate (i.e., 25%, 75%). Small molecule agents were assessed for their ability to inhibit the steady-state ATPase activity of bovine cardiac myofibrils using pyruvate kinase and lactate dehydrogenase (PK/LDH)-coupled enzyme system. This assay regenerates myosin-produced ADP into ATP by oxidizing NADH, producing an absorbance change at 340 nm. Prior to testing small molecule agents, the bovine cardiac myofibrils were assessed for their calcium responsiveness and the calcium concentration that achieves either a 50% (pCa50) or 75% (pCa75) activation of the myofibril system was chosen as the final condition for assessing the inhibitory activity of the small molecule agents. All enzymatic activity was measured in a buffered solution containing 12 mM PIPES (piperazine-N,N′-bis(2-ethanesulfonic acid), 2 mM magnesium chloride at pH 6.8 (PM 12 buffer). Final assay conditions were 1 mg/mL of bovine cardiac myofibrils, 4 U/mL pyruvate kinase, 6 U/mL lactate dehydrogenase, 50 μM ATP, 0.1 mg/mL BSA (bovine serum albumin), 10 ppm antifoam, 1 mM DTT, 0.5 mM NADH, 1.5 mM PEP, 0.6 mM EGTA, and an amount of CaCl2) sufficient to achieve either 50% or 75% activation of the myofibril ATPase activity.

pIC50: −log10 of the molar value.

Sequence of bovine cardiac myofibrils (full-length cardiac myosin ATPase in the native sarcomere) (Q9BE39 whole entry): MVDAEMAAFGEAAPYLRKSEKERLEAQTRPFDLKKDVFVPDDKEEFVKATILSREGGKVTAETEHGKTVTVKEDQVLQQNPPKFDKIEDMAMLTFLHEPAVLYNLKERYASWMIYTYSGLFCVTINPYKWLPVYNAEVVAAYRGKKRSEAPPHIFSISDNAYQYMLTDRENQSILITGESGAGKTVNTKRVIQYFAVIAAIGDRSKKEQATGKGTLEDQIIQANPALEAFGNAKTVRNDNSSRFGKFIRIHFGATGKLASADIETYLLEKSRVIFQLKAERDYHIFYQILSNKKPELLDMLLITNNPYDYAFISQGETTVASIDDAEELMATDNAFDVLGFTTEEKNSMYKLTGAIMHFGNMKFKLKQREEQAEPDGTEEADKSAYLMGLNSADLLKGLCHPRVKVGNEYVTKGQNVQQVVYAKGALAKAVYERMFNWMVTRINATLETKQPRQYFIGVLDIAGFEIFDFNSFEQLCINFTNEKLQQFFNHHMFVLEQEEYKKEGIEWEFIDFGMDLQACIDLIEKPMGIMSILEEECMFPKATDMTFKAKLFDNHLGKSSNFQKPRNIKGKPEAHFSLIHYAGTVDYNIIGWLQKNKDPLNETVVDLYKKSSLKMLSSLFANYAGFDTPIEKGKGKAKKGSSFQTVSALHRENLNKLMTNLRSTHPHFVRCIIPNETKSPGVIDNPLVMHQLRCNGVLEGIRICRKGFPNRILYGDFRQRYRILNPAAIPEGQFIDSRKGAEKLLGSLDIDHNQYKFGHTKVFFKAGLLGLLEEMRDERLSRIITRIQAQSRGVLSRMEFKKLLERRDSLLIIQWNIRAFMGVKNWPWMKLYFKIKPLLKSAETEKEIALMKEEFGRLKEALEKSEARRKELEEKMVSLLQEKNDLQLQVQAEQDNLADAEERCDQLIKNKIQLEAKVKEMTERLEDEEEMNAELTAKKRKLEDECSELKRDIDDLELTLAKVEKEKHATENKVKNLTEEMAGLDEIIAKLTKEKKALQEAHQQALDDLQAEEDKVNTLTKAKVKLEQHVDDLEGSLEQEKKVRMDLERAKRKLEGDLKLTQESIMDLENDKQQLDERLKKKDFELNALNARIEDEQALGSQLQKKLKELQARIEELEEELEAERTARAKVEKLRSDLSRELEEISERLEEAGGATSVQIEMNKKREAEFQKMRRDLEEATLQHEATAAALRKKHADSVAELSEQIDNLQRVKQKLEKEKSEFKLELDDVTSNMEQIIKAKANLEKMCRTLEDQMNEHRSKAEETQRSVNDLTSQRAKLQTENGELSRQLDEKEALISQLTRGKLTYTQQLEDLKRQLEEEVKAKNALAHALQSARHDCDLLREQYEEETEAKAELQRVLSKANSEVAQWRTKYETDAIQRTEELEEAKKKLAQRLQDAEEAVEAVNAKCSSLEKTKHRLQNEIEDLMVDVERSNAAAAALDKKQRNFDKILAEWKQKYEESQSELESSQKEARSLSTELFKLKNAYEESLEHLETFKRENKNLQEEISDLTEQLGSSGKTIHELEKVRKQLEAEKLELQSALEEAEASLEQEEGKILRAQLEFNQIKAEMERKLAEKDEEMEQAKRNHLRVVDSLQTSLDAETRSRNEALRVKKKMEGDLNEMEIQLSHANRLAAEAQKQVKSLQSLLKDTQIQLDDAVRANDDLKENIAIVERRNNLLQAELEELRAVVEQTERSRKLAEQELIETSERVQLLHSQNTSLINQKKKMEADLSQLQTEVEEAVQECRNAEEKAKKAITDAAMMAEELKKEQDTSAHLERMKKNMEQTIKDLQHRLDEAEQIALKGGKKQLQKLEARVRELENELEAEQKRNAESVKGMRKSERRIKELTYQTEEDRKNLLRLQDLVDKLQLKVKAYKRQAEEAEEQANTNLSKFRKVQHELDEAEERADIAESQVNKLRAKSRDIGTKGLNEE
Sequence of bovine cardiac myofibrils (full-length cardiac myosin ATPase in the native sarcomere) (P85100 whole entry partner): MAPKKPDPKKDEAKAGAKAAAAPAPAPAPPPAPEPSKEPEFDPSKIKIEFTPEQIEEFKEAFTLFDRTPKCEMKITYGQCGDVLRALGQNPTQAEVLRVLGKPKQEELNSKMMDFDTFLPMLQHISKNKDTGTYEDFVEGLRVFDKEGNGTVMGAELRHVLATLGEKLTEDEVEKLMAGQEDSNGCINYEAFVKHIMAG
Sequence of bovine cardiac myofibrils (full-length cardiac myosin ATPase in the native sarcomere) (Q3SZE5 whole entry partner): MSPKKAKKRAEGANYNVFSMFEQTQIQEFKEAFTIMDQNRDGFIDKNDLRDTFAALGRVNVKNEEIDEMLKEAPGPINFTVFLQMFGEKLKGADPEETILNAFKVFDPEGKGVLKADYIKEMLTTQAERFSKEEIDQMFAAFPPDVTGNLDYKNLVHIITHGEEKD

For the compound `Cn1nccc1C(=O)N[C@@H]1CCc2cc(-c3nc(C(F)F)no3)ccc21` [Compound 217, (R)—N-(5-(3-(difluoromethyl)-1,2,4-oxadiazol-5-yl)-2,3-dihydro-1H-inden-1-yl)-1-methyl-1H-pyrazole-5-carboxamide], the “CDMF75 IC15” value was determined as 0.6 µM and the pIC50 – broadly, −log10 of the IC50, conventionally taken in molar units – was 5.72.

For `Cn1nnc(C(=O)N[C@@H]2COc3cc(-c4noc(C(F)F)n4)ccc32)n1` [Compound 198, (S)-N-(6-(5-(difluoromethyl)-1,2,4-oxadiazol-3-yl)-2,3-dihydrobenzofuran-3-yl)-2-methyl-2H-tetrazole-5-carboxamide], the “CDMF75 IC15” value was found to be 2.0 µM and the pIC50 is 5.14.

Take `Cc1cc(C(=O)NC2CCc3cc(-c4ncc(C)o4)ccc32)ccn1` (stereo not shown) [Compound 140, 2-methyl-N-(5-(5-methyloxazol-2-yl)-2,3-dihydro-1H-inden-1-yl)isonicotinamide]: the “CDMF75 IC15” value was determined as 7.6 µM and the negative logarithm of the IC50 (pIC50) was below 4.41.

Regarding `CCc1nc(-c2ccc3c(c2)CC[C@H]3NC(=O)c2cn(CCCO)nc2C)no1` [Compound 612, (R)-N-(5-(5-ethyl-1,2,4-oxadiazol-3-yl)-2,3-dihydro-1H-inden-1-yl)-1-(3-hydroxypropyl)-3-methyl-1H-pyrazole-4-carboxamide], the “CDMF75 IC15” value was 0.7 µM and the pIC50 was 5.68.

Turning to `Cc1nc(-c2ccc3c(c2)CC[C@H]3NC(=O)c2cccc([C@H](C)O)c2)no1` [Compound 725, 3-((S)-1-hydroxyethyl)-N-((R)-5-(5-methyl-1,2,4-oxadiazol-3-yl)-2,3-dihydro-1H-inden-1-yl)benzamide], the “CDMF75 IC15” value turned out to be 0.6 µM and the negative logarithm of the IC50 (pIC50) was 5.54.

For `COCc1nc(-c2ccc3c(c2)CC[C@H]3NC(=O)c2cc(C)on2)no1` [Compound 690, (R)-N-(5-(5-(methoxymethyl)-1,2,4-oxadiazol-3-yl)-2,3-dihydro-1H-inden-1-yl)-5-methylisoxazole-3-carboxamide], the “CDMF75 IC15” value amounted to 4.4 µM and the pIC50 is 4.67.

As to `Cc1csc(C(=O)NC2CCc3cc(-c4noc(C(F)F)n4)ccc32)n1` (stereo not shown) [Compound 60, N-(5-(5-(difluoromethyl)-1,2,4-oxadiazol-3-yl)-2,3-dihydro-1H-inden-1-yl)-4-methylthiazole-2-carboxamide], the “CDMF75 IC15” value is 2.3 µM and the pIC50 was 5.08.

Turning to `CCc1nc(-c2ccc3c(c2)CC[C@H]3NC(=O)c2cn[nH]c2)no1` [Compound 469, (R)-N-(5-(5-ethyl-1,2,4-oxadiazol-3-yl)-2,3-dihydro-1H-inden-1-yl)-1H-pyrazole-4-carboxamide], the “CDMF75 IC15” value worked out at 0.3 µM and the pIC50 is 5.96.

Regarding `CC1(C(=O)N[C@@H]2CCc3cc(-c4noc(C5CC5)n4)ccc32)CC1` [Compound 330, (R)-N-(5-(5-cyclopropyl-1,2,4-oxadiazol-3-yl)-2,3-dihydro-1H-inden-1-yl)-1-methylcyclopropane-1-carboxamide], the “CDMF75 IC15” value turned out to be 3.8 µM and the negative logarithm of the IC50 (pIC50) was 4.75.

On to `CCc1nc(-c2cc(O)c3c(c2)CC[C@H]3NC(=O)c2cnn(C)c2)no1` [Compound 609, N-[(1R)-5-(5-ethyl-1,2,4-oxadiazol-3-yl)-7-hydroxy-2,3-dihydro-1H-inden-1-yl]-1-methyl-1H-pyrazole-4-carboxamide], for which the “CDMF75 IC15” value amounted to 0.3 µM and the negative logarithm of the IC50 (pIC50) was 6.05.

Regarding `CCc1nc(-c2ccc3c(c2)CC[C@H]3NC(=O)c2ccnc(C(F)F)c2)no1` [Compound 578, (R)-2-(difluoromethyl)-N-(5-(5-ethyl-1,2,4-oxadiazol-3-yl)-2,3-dihydro-1H-inden-1-yl)isonicotinamide], the “CDMF75 IC15” value was determined as 0.4 µM and the pIC50 is 5.92.

Take `CCc1nc(-c2ccc3c(c2)CC[C@H]3NC(=O)OCC2CN(C(N)=O)C2)no1` [Compound 362, (1-carbamoylazetidin-3-yl)methyl (R)-(5-(5-ethyl-1,2,4-oxadiazol-3-yl)-2,3-dihydro-1H-inden-1-yl)carbamate]: the “CDMF75 IC15” value turned out to be 1.9 µM and the negative logarithm of the IC50 (pIC50) was 5.18.

Turning to `Cc1noc(-c2ccc3c(c2)CC[C@H]3NC(=O)c2cccc(CO)c2)n1` [Compound 706, (R)-3-(hydroxymethyl)-N-(5-(3-methyl-1,2,4-oxadiazol-5-yl)-2,3-dihydro-1H-inden-1-yl)benzamide], the “CDMF75 IC15” value is 0.6 µM and the negative-log IC50 (pIC50) was 5.60.

With `Cc1nc(-c2ccc3c(c2)CC[C@H]3NC(=O)c2nncn2C)no1` [Compound 164, (R)-4-methyl-N-(5-(5-methyl-1,2,4-oxadiazol-3-yl)-2,3-dihydro-1H-inden-1-yl)-4H-1,2,4-triazole-3-carboxamide], the “CDMF75 IC15” value is 8.2 µM and the pIC50 was below 4.41.

`CCc1nc(-c2ccc3c(c2)OCC[C@H]3NC(=O)c2ccnn2C)no1` [Compound 537, (R)-N-(7-(5-ethyl-1,2,4-oxadiazol-3-yl)chroman-4-yl)-1-methyl-1H-pyrazole-5-carboxamide]: the “CDMF75 IC15” value was determined as 0.4 µM and the pIC50 was 5.74.

As to `Cc1nn(C)cc1C(=O)NC1CCc2cc(-c3noc(C(F)F)n3)ccc21` (stereo not shown) [Compound 28, N-(5-(5-(difluoromethyl)-1,2,4-oxadiazol-3-yl)-2,3-dihydro-1H-inden-1-yl)-1,3-dimethyl-1H-pyrazole-4-carboxamide], the “CDMF75 IC15” value was determined as 0.8 µM and the pIC50 was 5.47.

Take `Cc1ncc(C(=O)N[C@@H]2COc3cc(-c4noc(C(F)F)n4)ccc32)o1` [Compound 206, (S)-N-(6-(5-(difluoromethyl)-1,2,4-oxadiazol-3-yl)-2,3-dihydrobenzofuran-3-yl)-2-methyloxazole-5-carboxamide]: the “CDMF75 IC15” value came to 0.7 µM and the negative logarithm of the IC50 (pIC50) was 5.64.

With `Cc1nc(-c2ccc3c(c2)CCC3NC(=O)c2ccnc(N)c2)no1` (stereo not shown) [Compound 33, 2-amino-N-(5-(5-methyl-1,2,4-oxadiazol-3-yl)-2,3-dihydro-1H-inden-1-yl)isonicotinamide], the “CDMF75 IC15” value was found to be 1.3 µM and the pIC50 is 5.37.

In the case of `CCc1nc(-c2ccc3c(c2)CC[C@H]3NC(=O)c2ocnc2C(F)(F)F)no1` [Compound 639, (R)-N-(5-(5-ethyl-1,2,4-oxadiazol-3-yl)-2,3-dihydro-1H-inden-1-yl)-4-(trifluoromethyl)oxazole-5-carboxamide], the “CDMF75 IC15” value was determined as 0.3 µM and the pIC50 was 5.96.

For the compound `CCc1nc(-c2ccc3c(c2)CC[C@H]3NC(=O)c2ccn(CCO)c(=O)c2)no1` [Compound 559, (R)-N-(5-(5-ethyl-1,2,4-oxadiazol-3-yl)-2,3-dihydro-1H-inden-1-yl)-1-(2-hydroxyethyl)-2-oxo-1,2-dihydropyridine-4-carboxamide], the “CDMF75 IC15” value was found to be 1.4 µM and the negative logarithm of the IC50 (pIC50) is 5.24.

Take `CC(C)OC(=O)N[C@@H]1CCc2cc(-c3noc(C(F)F)n3)ccc21` [Compound 279, isopropyl (R)-(5-(5-(difluoromethyl)-1,2,4-oxadiazol-3-yl)-2,3-dihydro-1H-inden-1-yl)carbamate]: the “CDMF75 IC15” value worked out at 22.4 µM and the pIC50 was below 4.41.

For `COCc1nc(-c2ccc3c(c2)CC[C@H]3NC(=O)c2cc(CO)ccc2F)no1` [Compound 671, (R)-2-fluoro-5-(hydroxymethyl)-N-(5-(5-(methoxymethyl)-1,2,4-oxadiazol-3-yl)-2,3-dihydro-1H-inden-1-yl)benzamide], the “CDMF75 IC15” value came to 6.5 µM and the negative-log IC50 (pIC50) is 4.52.

With `Cc1nc(-c2ccc3c(c2)CC[C@H]3NC(=O)c2cn[nH]c2)no1` [Compound 487, (R)-N-(5-(5-methyl-1,2,4-oxadiazol-3-yl)-2,3-dihydro-1H-inden-1-yl)-1H-pyrazole-4-carboxamide], the “CDMF75 IC15” value worked out at 0.9 µM and the pIC50 was 5.47.

`CCc1nc(-c2ccc3c(c2)CC[C@H]3NC(=O)c2ccno2)no1` [Compound 581, (R)-N-(5-(5-ethyl-1,2,4-oxadiazol-3-yl)-2,3-dihydro-1H-inden-1-yl)isoxazole-5-carboxamide]: the “CDMF75 IC15” value is 0.4 µM and the negative logarithm of the IC50 (pIC50) was 5.85.

In the case of `CCc1nc(-c2ccc3c(c2)CC[C@H]3NC(=O)c2cnn(C3CNC3)c2)no1` [Compound 484, (R)-1-(azetidin-3-yl)-N-(5-(5-ethyl-1,2,4-oxadiazol-3-yl)-2,3-dihydro-1H-inden-1-yl)-1H-pyrazole-4-carboxamide], the “CDMF75 IC15” value amounted to 39.2 µM and the pIC50 was 4.41.

Take `Cc1nccc(-c2ccc3c(c2)CC[C@H]3NC(=O)c2ccnn2C)n1` [Compound 379, (R)-1-methyl-N-(5-(2-methylpyrimidin-4-yl)-2,3-dihydro-1H-inden-1-yl)-1H-pyrazole-5-carboxamide]: the “CDMF75 IC15” value came to 39.2 µM and the negative logarithm of the IC50 (pIC50) is below 4.41.
